Literature values in PubChem BioAssay AID1259409 (Chemical Carcinogenesis Research Information System (CCRIS), 2018).

System: rodent chemically induced tumor inhibition, incidence and multiplicity
Experiment: CCRIS tumor inhibitor studies

## O=C(O)CCSCCC(=O)O
Carcinogen: 7,12-DIMETHYLBENZ[A]ANTHRACENE, 57-97-6, Dose [Inhibitor]: 1.0% IN POWDERED DIET BEGINNING 1 WK POST CARCINOGEN DOSE FOR 51 WK (STUDY DURATION: 52 WK), Route [Inhibitor]: ORAL, Species: RAT, Strain/Sex: SPRAGUE-DAWLEY/FEMALE, Target Tissue: Type of Lesion: EAR DUCT: BENIGN TUMOR, Dose [Carcinogen]: 2.5 MG/100 G BW IN 0.5 ML SESAME OIL ONCE, Promoter: NONE USED
  tumour outcome (control, treated, inhibition, significance): 7/19 (37%), 2/19 (11%), 72%, not calculated
Carcinogen: 7,12-DIMETHYLBENZ[A]ANTHRACENE, 57-97-6, Dose [Inhibitor]: 1.0% IN POWDERED DIET BEGINNING 1 WK POST CARCINOGEN DOSE FOR 51 WK (STUDY DURATION: 52 WK), Route [Inhibitor]: ORAL, Species: RAT, Strain/Sex: SPRAGUE-DAWLEY/FEMALE, Target Tissue: Type of Lesion: MAMMARY GLAND: FIBROADENOMA, Dose [Carcinogen]: 2.5 MG/100 G BW IN 0.5 ML SESAME OIL ONCE, Promoter: NONE USED
  tumour outcome (control, treated, inhibition, significance): 15/19 (79%), 9/19 (47%), 40%, not calculated

## Oc1ccc(/C=C/c2cc(O)cc(O)c2)cc1
Carcinogen: Diethylnitrosamine, 55-18-5, Dose [Inhibitor]: 0, 50, 100, 300 mg/kg bw for 20 wk, Dose [Inhibitor]: 0, 50, 100, 300 mg/kg bw for 20 wk, Route [Inhibitor]: Oral (diet), Species: Rat, Strain/Sex: Sprague-Dawley/Female, Target Tissue: Type of Lesion: Liver: nodules, Dose [Carcinogen]: 200 mg/kg bw once in peanut oil after 4 wk on diet, study duration 20 wk, Promoter: Phenobarbital, 50-06-6
  outcome: 100%; 78%; 50% (p<0.05); 40% (p<0.05)

## [O]=[V](=[O])[OH]
Carcinogen: 7,12-DIMETHYLBENZ[A]ANTHRACENE (57-97-6), Dose [Inhibitor]: DRINKING WATER, Route [Inhibitor]: 4.27 µM/L DIRECTLY AFTER CARCINOGEN UNTIL 34 WKS, Species: RAT, Strain/Sex: SPRAGUE-DAWLEY/FEMALE, Target Tissue: Type of Lesion: MAMMARY: CARCINOMA, Dose [Carcinogen]: 0.5 MG/100 G BW AT 50 D OF AGE ONCE (STUDY DURATION: 35 WKS)
  tumour outcome (control, treated, inhibition, significance): 100%, 60%, 40%, p<0.05
Carcinogen: 7,12-Dimethylbenzanthracene, 57-97-6, Dose [Inhibitor]: 0.5 ppm in drinking water beginning immediately after carcinogen up to 35 wks study duration, Route [Inhibitor]: Oral, Species: Rat, Strain/Sex: Sprague-Dawley/Female, Target Tissue: Type of Lesion: Mammary gland: Adenocarcinoma, Dose [Carcinogen]: 0.5 mg/100 g bw iv once, study duration 35 wk, Promoter: None
  outcome: 9/10 (90%), 6/10 (60%), p<0.05
Carcinogen: INTRAVENOUS; Dose [Inhibitor]: 7,12-DIMETHYLBENZ[A]ANTHRACENE; 57-97-6; Route [Inhibitor]: 0; 0.5 PPM IN DRINKING WATER FOR 35 WK BEGINNING IMMEDIATELY POST CARCINOGEN TREATMENT, STUDY DURATION: 35 WK), Species: RAT, Strain/Sex: SPRAGUE-DAWLEY/FEMALE, Target Tissue: Type of Lesion: 9/10 (90%), 6/10 (60%), 33%, P<0.05
  outcome: 8.11, 5.33, 34%, p<0.01
Carcinogen: N,N-Diethylnitrosamine;(55-18-5, Dose [Inhibitor]: 0.5 ppm as vanadium starting 4 wk prior to DEN and stopped at week 4, Route [Inhibitor]: Oral (drinking water), Species: Rats, Strain/Sex: Sprague-Dawley/Male, Target Tissue: Type of Lesion: Liver: Preneoplastic nodules, Dose [Carcinogen]: Single 200 mg/kg dose in 0.9% saline at wk 4 of experiment, Promoter: Phenobarbital
  tumour outcome (control, treated, inhibition, significance): 15/15 (100%), 4/12 (33.33%), 66.67%

## C
Carcinogen: N-METHYL-N'-NITRO-N-NITROSOGUANIDINE [70-25-7], Dose [Inhibitor]: 100 MG/KG BW AQUALEN (ACTIVATED CARBON FIBER ADSORBENT) IN DIET 5X/WK FOR 16 MONTHS (STUDY DURATION: 16 MONTHS), Route [Inhibitor]: ORAL, Species: RAT, Strain/Sex: LIO/FEMALE, Target Tissue: Type of Lesion: DUODENUM: ADENOCARCINOMA, Dose [Carcinogen]: 100 MG/L IN DRINKING WATER 5X/WK FOR 12 MONTHS (STUDY DURATION: 16 MONTHS), Promoter: NONE
  tumour outcome (control, treated, inhibition, significance): 2/14 (14.3%), 0/13 (0.0%), 100%, not significant
Carcinogen: N-METHYL-N'-NITRO-N-NITROSOGUANIDINE [70-25-7], Dose [Inhibitor]: 100 MG/KG BW AQUALEN (ACTIVATED CARBON FIBER ADSORBENT) IN DIET 5X/WK FOR 16 MONTHS (STUDY DURATION: 16 MONTHS), Route [Inhibitor]: ORAL, Species: RAT, Strain/Sex: LIO/FEMALE, Target Tissue: Type of Lesion: LIVER: CYSTOCHOLANGIOMA, Dose [Carcinogen]: 100 MG/L IN DRINKING WATER 5X/WK FOR 12 MONTHS (STUDY DURATION: 16 MONTHS), Promoter: NONE
  tumour outcome (control, treated, inhibition, significance): 2/14 (14.3%), 0/13 (0.0%), 100%, not significant
Carcinogen: N-METHYL-N'-NITRO-N-NITROSOGUANIDINE [70-25-7], Dose [Inhibitor]: 100 MG/KG BW AQUALEN (ACTIVATED CARBON FIBER ADSORBENT) IN DIET 5X/WK FOR 16 MONTHS (STUDY DURATION: 16 MONTHS), Route [Inhibitor]: ORAL, Species: RAT, Strain/Sex: LIO/FEMALE, Target Tissue: Type of Lesion: STOMACH: CARCINOMA IN SITU, Dose [Carcinogen]: 100 MG/L IN DRINKING WATER 5X/WK FOR 12 MONTHS (STUDY DURATION: 16 MONTHS), Promoter: NONE
  tumour outcome (control, treated, inhibition, significance): 1/14 (7.1%), 4/13 (30.8%), -334%, not significant
Carcinogen: N-METHYL-N'-NITRO-N-NITROSOGUANIDINE [70-25-7], Dose [Inhibitor]: 100 MG/KG BW AQUALEN (ACTIVATED CARBON FIBER ADSORBENT) IN DIET 5X/WK FOR 16 MONTHS (STUDY DURATION: 16 MONTHS), Route [Inhibitor]: ORAL, Species: RAT, Strain/Sex: LIO/FEMALE, Target Tissue: Type of Lesion: STOMACH: INVASIVE ADENOCARCINOMA, Dose [Carcinogen]: 100 MG/L IN DRINKING WATER 5X/WK FOR 12 MONTHS (STUDY DURATION: 16 MONTHS), Promoter: NONE
  tumour outcome (control, treated, inhibition, significance): 5/14 (35.7%), 1/13 (7.7%), 78%, p<0.05

## O=c1c(O)c(-c2cc(O)c(O)c(O)c2)oc2cc(O)ccc12
Carcinogen: (+/-)-7BETA,8ALPHA-DIHYDROXY-9ALPHA,10ALPHA-EPOXY-7,8,9,10-TETRAHYDROBENZO[A]PYR ENE, 58917-67-2, Dose [Inhibitor]: 0, 1400 NMOL (TOTAL DOSE) 10 MIN PRIOR TO CARCINOGEN DOSE INJECTED AS 1/7, 2/7,AND 4/7 OF THE TOTAL ON DAYS 1, 8, AND 15, Route [Inhibitor]: INTRAPERITONEAL, Species: MOUSE, Strain/Sex: ICR/MALE,FEMALE, Target Tissue: Type of Lesion: LUNG: TUMOR, Dose [Carcinogen]: 30 NMOL (TOTAL DOSE) INJECTED IN DOSES OF 1/7, 2/7, AND 4/7 ON DAYS 1,8, AND 15 OF LIFE, RESPECTIVELY, Promoter: NONE USED
  tumour outcome (control, treated, inhibition, significance): 93%, 50%, 46%, p<0.05
Carcinogen: (+/-)-7BETA,8ALPHA-DIHYDROXY-9ALPHA,10ALPHA-EPOXY-7,8,9,10-TETRAHYDROBENZO[A]PYR ENE, 58917-67-2, Dose [Inhibitor]: 0, 1400 NMOL (TOTAL DOSE) APPLIED 10 MIN PRIOR TO CARCINOGEN DOSE INJECTED AS 1/7, 2/7, AND 4/7 OF THE TOTAL ON DAYS 1,, Route [Inhibitor]: INTRAPERITONEAL, Species: MOUSE, Strain/Sex: ICR/MALE,FEMALE, Target Tissue: Type of Lesion: LUNG: TUMOR, Dose [Carcinogen]: 15 NMOL (TOTAL DOSE) INJECTED IN DOSES OF 1/7, 2/7, AND 4/7 ON DAYS 1, 8, AND 15 OF LIFE, RESPECTIVELY, Promoter: NONE USED
  tumour outcome (control, treated, inhibition, significance): 63%, 41%, 35%, p<0.05
Carcinogen: (+/-)-7BETA,8ALPHA-DIHYDROXY-9ALPHA,10ALPHA-EPOXY-7,8,9,10-TETRAHYDROBENZO[A]PYR ENE, 58917-67-2, Dose [Inhibitor]: 0, 2500 NMOL IN 200 µL ACETONE:DMSO (90:10) ONCE APPLIED 5 MIN PRIOR TO CARCINOGEN DOSE (STUDY DURATION: 21 WK), Route [Inhibitor]: DERMAL, Species: MOUSE, Strain/Sex: CD-1/FEMALE, Target Tissue: Type of Lesion: SKIN: TUMOR, Dose [Carcinogen]: 200 NMOL IN ACETONE:DMSO (90:10) ONCE, Promoter: 12-O-TETRADECANOYLPHORBOL-13-ACETATE, 16561-29-8
  tumour outcome (control, treated, inhibition, significance): 59%, 68%, -15%, not significant
Carcinogen: BENZO[A]PYRENE, 50-32-8, Dose [Inhibitor]: 0, 1400 NMOL (TOTAL DOSE) APPLIED 10 MIN PRIOR TO CARCINOGEN DOSE INJECTED AS 1/7, 2/7, AND 4/7 OF THE TOTAL ON DAYS 1,, Route [Inhibitor]: INTRAPERITONEAL, Species: MOUSE, Strain/Sex: ICR/MALE,FEMALE, Target Tissue: Type of Lesion: LUNG: TUMOR, Dose [Carcinogen]: 450 NMOL (TOTAL DOSE) INJECTED IN DOSES OF 1/7, 2/7, AND 4/7 ON DAYS 1, 8, AND 15 OF LIFE, RESPECTIVELY, Promoter: NONE USED
  tumour outcome (control, treated, inhibition, significance): 73%, 79%, -8%, not significant
Carcinogen: BENZO[A]PYRENE, 50-32-8, Dose [Inhibitor]: 0, 2500 NMOL IN 200 µL ACETONE:DMSO (90:10) ONCE APPLIED 5 MIN PRIOR TO CARCINOGEN DOSE (STUDY DURATION: 21 WK), Route [Inhibitor]: DERMAL, Species: MOUSE, Strain/Sex: CD-1/FEMALE, Target Tissue: Type of Lesion: SKIN: TUMOR, Dose [Carcinogen]: 50 NMOL IN ACETONE:DMSO (90:10) ONCE, Promoter: 12-O-TETRADECANOYLPHORBOL-13-ACETATE, 16561-29-8
  tumour outcome (control, treated, inhibition, significance): 50%, 54%, -8%, not significant
